Counter-ions that a name gives are not always drawn. Where a SMILES comes first, the peptide text is derived from it. The star is where a group is joined. Cbz = O=C(OCc1ccccc1)*
Key:
[1] = test system: E-cadherin; experiment: EMT phenotype, E-cadherin and vimentin protein in 4T1 clones (microscopy, western blot); type: cell-based, mouse; details: for rank order of effect on R cell epithelial morphology and E-cadherin expression: R cells, 15 or 50 μg/ml, dose dependent
Excerpt: (§1) Cells were stained as described previously (Mammoto et al., Cancer Lett. 184:165-170, 2002) and images acquired with a Delta Vision system (Applied Precision, Issaquah, Wash.) equipped with an Axiovert 100 microscope (Carl Zeiss MicroImaging Inc., Shelton, Conn.) and a Photometrics 300 series scientific-grade cooled CCD camera, reading 12-bit images, and using the 63/1.4 NA plan-Neofluar objective. For immunoprecipitation and immunoblotting, tissues were weighed, diced, soaked in ice cold RIPA buffer with 1 mM phenylmethylsulfonyl fluoride (PMSF), 1 μg/ml Aprotinin, 1 mM Na3VO4, 1 nM NaF, homogenized on ice, centrifuged at 10,000 g for 10 minutes at 4° C., and the supernatant fluid collected as total cell lysate. Cultured cells were washed, scraped, and solubilized in a lysis buffer containing 20 mM Tris-HCl pH 7.5, 150 mM NaCl, 0.5% Triton X-100, 1% aprotinin, and 1 mM PMSF. After 20 minutes on ice, the cells were pelleted by centrifugation and the supernatants were used as a cell lysate. Cell lysates or immunoprecipitated cell lysates were separated by PAGE (NuPAGE® gels; Invitrogen, Carlsbad, Calif.), followed by electroblotting onto a polyvinylidenedifluoride membrane (PVDF). Protein bands were detected using SuperSignal® West Pico Chemiluminescent Substrate (Pierce Chemical Co., Rockford, Ill.) (Hanai et al., J. Cell. Biol. 158:529-539, 2002).
To assess the effects of lipocalin 2 on ras-mediated transformation, we chose a syngeneic spontaneously metastasizing murine breast cancer model (4T1 cell line) and accelerated its metastatic potential by introduction of constitutively active mouse H-ras mutant A12 using retrovirus. […] We generated stable clones of 4T1-ras cells expressing lipocalin 2 (RL) by transfection of a lipocalin 2 expression plasmid (lipocalin 2-pcDNA3.1). […] (FIG. 2A, lower panel, and FIG. 2B). […] Expression of E-cadherin in RL cells was dependent on the dose of lipocalin 2-pcDNA3.1 expression vector (transiently introduced in a population of R cells), on a conditioned medium containing lipocalin 2 (FIGS. 2D-E), as well as on recombinant lipocalin 2 protein. R cells shown in FIG. 2D were seeded in a 6-well plate and transfected with lipocalin 2 by FuGene 6 at 40% confluency. After 48 hours, cells were trypsinized, respread on 6-well plate, and transfected again in the same conditions. After 72 hours, cells were harvested and analyzed by western blotting. EV cells in FIG. 2E were seeded in a 6-well plate with 1 ml/well containing 10% FCS with DMEM and 2 ml of CM was added at 10% confluency. After 72 hours, cells were harvested and analyzed by western blotting. CM is a mixture of media from 293T cells transfected with lipocalin 2 and from 293 cells transfected with empty vector (pcDNA3.1).

[2] = test system: E-cadherin; experiment: Induction of E-cadherin in embryonic mesenchyme; type: cell-based, rat; details: enterochelin siderophore complex with gallium instead of iron
[3] = test system: VEGF; experiment: Measurement of VEGF levels by ELISA in conditioned media of 4T1 cells; type: cell-based, mouse; details: R cells; 2 days of incubation; dose dependent
Method: Conditioned media of 4T1 cells were collected after 2 days of incubation. Murine VEGF levels were determined in duplicate using a commercially available sandwich ELISA kit (R&D Systems, Minneapolis, Minn.), with a affinity purified polyclonal antibody specific for mouse VEGF has been pre-coated onto a microplate. Results were compared with a standard curve of mouse VEGF with a lower detection limit of 7 pg/mL. A model 680 microplate-reader (Bio-Rad Laboratories, CA) was used to measure light intensity correlating with VEGF binding.

[4] = test system: E-cadherin; experiment: E-cadherin phosphorylation (immunoprecipitation and western blot); type: cell-based, mouse; details: R cells vs RL cells or R cells with inhibitor
Excerpt: as §1

[5] = test system: raf, MEK, and ERK1/2; experiment: Western blots with phosphospecific antibodies for ras-MAPK signaling molecules; type: cell-based, mouse; details: R cells
Excerpt: as §1, with “After 20 minutes on ice, the cells were pelleted by centrifugation and the supernatants were used as a cell lysate. Cell lysates or immunoprecipitated cell lysates were separated by PAGE (NuPAGE® gels; Invitrogen, Carlsbad, Calif.), followed by electroblotting onto a polyvinylidenedifluoride membrane (PVDF).” left out
For these experiments, EV and R cells were starved in DMEM without serum for 48 hours. […] Signaling events downstream of ERK activation were then monitored with a multi-copy serum-response element (SRE)-luciferase construct introduced into EV, R, and RL (FIG. 6B). […]

[6] = test system: serum-response element (SRE); experiment: SRE-luciferase assay; type: cell-based, mouse
Method: After transient transfection of the plasmids, cells were incubated for 20 hours in 10% FCS and luciferase activity in the cell lysates was determined using a luminometer normalized by sea-pansy luciferase activity under the control of the thymidine kinase promoter. The Dual-Luciferase Reporter Assay System was purchased from Promega (Madison, Wis.) (Hanai et al., J. Biol. Chem. 277:16464-16469, 2002).
For these experiments, EV and R cells were starved in DMEM without serum for 48 hours. During this time, half of the R cells were incubated with 50 μg/ml of lipocalin 2 protein with iron-loaded siderophore (R+Lipo:Sid:Fe), after which all cells were incubated with 10% FCS containing DMEM for 20 minutes and then harvested for western blotting with phosphospecific antibodies. Signaling events downstream of ERK activation were then monitored with a multi-copy serum-response element (SRE)-luciferase construct introduced into EV, R, and RL (FIG. 6B). For these experiments, an SRE-luciferase assay was performed on 4T1 clones after the 48 hour incubation in serum free DMEM. […] Just like R cells treated with exogenous protein (FIG. 6A), R cells infection with recombinant adenovirus carrying lipocalin 2, but not GFP, reduced SRE-luciferase activity, MEK, and ERK1/2 phosphorylation, without altering ras expression.
To localize the effect of lipocalin on ras-MAPK signaling, we utilized an adenovirus and expression plasmid encoding a constitutively active MEK (MEK-DD) (Murakami et al., Cell Growth Differ 10:333-342, 1999). MEK-DD adenoviral infection of EV cells led to increased SRE-luciferase activity (increased MAPK activity). […] RL cells in a 6-well plate were infected with an adenovirus carrying the MEK dominant active form (MEK-DD) and a Lac-Z adenovirus at the indicated multiplicities (MOI) in 2% serum including DMEM medium for 48 hours. Cells were then trypsinized, respread on 6-well plate at 5-10% confluency, and incubated with 10% serum including DMEM medium. Cell lysates were collected for western blotting 48 hours after the final plating (FIG. 6D). […]

Molecule: CC(=O)N(O)CCCCCNC(=O)CCC(=O)N(O)CCCCCNC(=O)CCC(=O)N(O)CCCCCN [DFO, Deferoxamine mesylate]
- E-cadherin expression in RL cells ([1]; 2-5 μM, 48 hours): suppressed E-cadherin expression
- morphology of RL cells ([1]; 2-5 μM, 48 hours): changed the morphology of RL cells to a mesenchymal phenotype

Molecule: CC(C)C[C@@H](C=O)NC(=O)[C@H](CC(C)C)NC(=O)[C@H](CC(C)C)NC(=O)OCc1ccccc1 [MG132] (Cbz-Leu-Leu-Leu-aldehyde)
- E-cadherin protein in EV cells ([1]; 0.5 nM for 2 days): increased E-cadherin protein
- E-cadherin protein in R cells ([1]; 0.5 nM for 2 days): increased E-cadherin protein
- E-cadherin protein in RL cells ([1]; 0.5 nM for 2 days): only slightly increased E-cadherin
- phenotype of R cells ([1]; 0.5 nM for 48 hours): reverted R cells to an epithelial phenotype

Molecule: [Ga] [gallium]
- induction of E-cadherin in mesenchyme when iron is substituted [2]: greatly diminished

Molecule: N#CC(=C(/N)Sc1ccccc1N)/C(C#N)=C(\N)Sc1ccccc1N [U0126]
- effect on ras-induced EMT [1]: reversed ras-induced EMT
- maximum inhibition of VEGF production, each inhibitor alone [3]: approximately 50%
- E-cadherin phosphorylation [4]: markedly downregulated

Molecule: O=S(=O)([O-])[O-].O=S(=O)([O-])[O-].[Fe+3].[NH4+] [ferric ammonium sulfate]
- phenotype of R cells after adding iron ([1]; 50 μM): did not change their phenotype

Molecule: O=c1cc(N2CCOCC2)oc2c(-c3ccccc3)cccc12 [LY294002]
- maximum inhibition of VEGF production, each inhibitor alone [3]: approximately 50%

B1: Lipo:Sid:Fe: recombinant mouse lipocalin 2 mixed with iron-loaded bacterial siderophore enterochelin (protein, UniProt P11672 21-200, looked up)
Neutrophil …: QDSTQNLIPAPSLLTVPLQPDFRSDQFRGRWYVVGLAGNAVQKKTEGSFTMYSTIYELQENNSYNVTSILVRDQDQGCRYWIRTFVPSSRAGQFTLGNMHRYPQVQSYNVQVATTDYNQFAMVFFRKTSENKQYFKITLYGRTKELSPELKERFTRFAKSLGLKDDNIIFSVPTDQCIDN
modifications: iron-loaded enterochelin siderophore complex
notes: recombinant mouse lipocalin 2 mixed with iron-loaded bacterial siderophore enterochelin
- rank order of effect on R cell epithelial morphology and E-cadherin expression [1]: Lipo:Sid:Fe>Lipo:Sid>Lipo
- total ras expression ([5]; 50 μg/ml for 48 hours): unchanged
- ras induced phosphorylation of raf, MEK, and ERK1/2 ([5]; 50 μg/ml for 48 hours serum free, then 10% FCS 20 minutes): largely abrogated
- SRE-luciferase activity induced by CA-H-ras ([6]; EV cells transfected with H-ras V12): downregulated SRE-luciferase activity
- inhibition of MEK-DD induced SRE-luciferase activity ([6]; EV cells transfected with MEK-DD): unable to inhibit this effect

B2: Lipo:Sid: recombinant mouse lipocalin 2 mixed with iron-unloaded bacterial siderophore enterochelin (protein, UniProt P11672 21-200, looked up)
Neutrophil …: B1 Neutrophil …
modifications: iron-free enterochelin siderophore
notes: recombinant mouse lipocalin 2 mixed with iron-unloaded bacterial siderophore enterochelin
- rank order of effect on R cell epithelial morphology and E-cadherin expression [1]: Lipo:Sid:Fe>Lipo:Sid>Lipo

B3: Lipo: recombinant mouse lipocalin 2 protein expressed in E. coli BL21, without siderophore (protein, UniProt P11672 21-200, looked up)
Neutrophil …: B1 Neutrophil …
- rank order of effect on R cell epithelial morphology and E-cadherin expression [1]: Lipo:Sid:Fe>Lipo:Sid>Lipo
